ChEMBL document CHEMBL4507273 (2021)

How the values were obtained:
[1] = target: MAP kinase-interacting serine/threonine-protein kinase 1 (Homo sapiens) (UniProt Q9BUB5); settings: Compound concentration 1000.0 nM
[2] = target: Phosphorylase b kinase gamma catalytic chain, skeletal muscle/heart isoform (Homo sapiens) (UniProt Q16816); settings: Compound concentration 1000.0 nM
[3] = target: Serine/threonine-protein kinase 24 (Homo sapiens) (UniProt Q9Y6E0); settings: Compound concentration 1000.0 nM
Sequence of Serine/threonine-protein kinase 24 (Homo sapiens) (Q9Y6E0 whole entry, looked up): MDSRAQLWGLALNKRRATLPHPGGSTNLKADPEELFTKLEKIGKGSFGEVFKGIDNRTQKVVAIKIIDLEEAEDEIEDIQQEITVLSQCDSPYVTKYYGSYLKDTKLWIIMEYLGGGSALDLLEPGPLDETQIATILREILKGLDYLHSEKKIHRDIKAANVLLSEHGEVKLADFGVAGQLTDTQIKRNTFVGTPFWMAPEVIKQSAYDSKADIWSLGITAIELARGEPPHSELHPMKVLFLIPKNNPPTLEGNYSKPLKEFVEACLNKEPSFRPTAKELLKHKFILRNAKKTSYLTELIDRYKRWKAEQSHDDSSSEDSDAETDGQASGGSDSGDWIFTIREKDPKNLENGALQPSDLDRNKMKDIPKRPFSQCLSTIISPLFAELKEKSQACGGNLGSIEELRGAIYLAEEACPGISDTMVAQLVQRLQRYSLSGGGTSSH

[4] = target: Serine/threonine-protein kinase N2 (Homo sapiens) (UniProt Q16513); settings: Compound concentration 1000.0 nM
[5] = test system: Phosphatidylinositol 4,5-bisphosphate 3-kinase catalytic subunit alpha isoform (Homo sapiens), P42336 [E545A]; settings: Compound concentration 1000.0 nM
[6] = target: Phosphorylase b kinase regulatory subunit alpha, liver isoform (Homo sapiens) (UniProt P46019); settings: Compound concentration 1000.0 nM
[7] = target: Serine/threonine-protein kinase SIK3 (Homo sapiens) (UniProt Q9Y2K2); settings: Compound concentration 1000.0 nM
[8] = target: Macrophage colony-stimulating factor 1 receptor (Homo sapiens) (UniProt P07333); settings: Compound concentration 1000.0 nM
[9] = target: Protein-tyrosine kinase 2-beta (Homo sapiens) (UniProt Q14289); settings: Compound concentration 1000.0 nM
[10] = target: Mitogen-activated protein kinase 1 (Homo sapiens) (UniProt P28482); settings: Compound concentration 1000.0 nM
[11] = target: 5-hydroxytryptamine receptor 1E (Homo sapiens) (UniProt P28566); settings: Compound concentration 10.0 uM
[12] = target: Calcium-dependent protein kinase 1 (Plasmodium falciparum) (UniProt P62344); settings: Compound concentration 1000.0 nM
Sequence of Calcium-dependent protein kinase 1 (Plasmodium falciparum) (P62344 2-524 limits assumed): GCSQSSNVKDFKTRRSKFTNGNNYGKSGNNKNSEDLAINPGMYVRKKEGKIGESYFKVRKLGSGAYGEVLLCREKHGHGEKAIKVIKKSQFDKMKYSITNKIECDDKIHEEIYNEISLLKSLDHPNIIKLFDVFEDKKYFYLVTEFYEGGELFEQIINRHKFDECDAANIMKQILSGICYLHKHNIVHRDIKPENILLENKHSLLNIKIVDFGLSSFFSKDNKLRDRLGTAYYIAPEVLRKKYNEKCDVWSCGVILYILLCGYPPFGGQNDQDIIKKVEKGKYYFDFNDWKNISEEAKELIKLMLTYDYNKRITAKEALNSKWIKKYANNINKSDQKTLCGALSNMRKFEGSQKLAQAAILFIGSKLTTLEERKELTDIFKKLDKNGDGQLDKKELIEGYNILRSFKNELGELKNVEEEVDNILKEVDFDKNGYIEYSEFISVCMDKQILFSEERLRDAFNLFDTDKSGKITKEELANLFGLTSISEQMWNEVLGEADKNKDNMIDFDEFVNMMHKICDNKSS

[13] = test system: Receptor-type tyrosine-protein kinase FLT3 (Homo sapiens), P36888 [D835H]; settings: Compound concentration 1000.0 nM
[14] = target: T1, Sodium-dependent noradrenaline transporter (Homo sapiens, UniProt P23975); assay: GPCRScan assay: inhibition of NET; design: radioligand conc. used [nm] 1.3 – 5.0, parental cells stable HEK
T1 sequence (P23975 whole entry): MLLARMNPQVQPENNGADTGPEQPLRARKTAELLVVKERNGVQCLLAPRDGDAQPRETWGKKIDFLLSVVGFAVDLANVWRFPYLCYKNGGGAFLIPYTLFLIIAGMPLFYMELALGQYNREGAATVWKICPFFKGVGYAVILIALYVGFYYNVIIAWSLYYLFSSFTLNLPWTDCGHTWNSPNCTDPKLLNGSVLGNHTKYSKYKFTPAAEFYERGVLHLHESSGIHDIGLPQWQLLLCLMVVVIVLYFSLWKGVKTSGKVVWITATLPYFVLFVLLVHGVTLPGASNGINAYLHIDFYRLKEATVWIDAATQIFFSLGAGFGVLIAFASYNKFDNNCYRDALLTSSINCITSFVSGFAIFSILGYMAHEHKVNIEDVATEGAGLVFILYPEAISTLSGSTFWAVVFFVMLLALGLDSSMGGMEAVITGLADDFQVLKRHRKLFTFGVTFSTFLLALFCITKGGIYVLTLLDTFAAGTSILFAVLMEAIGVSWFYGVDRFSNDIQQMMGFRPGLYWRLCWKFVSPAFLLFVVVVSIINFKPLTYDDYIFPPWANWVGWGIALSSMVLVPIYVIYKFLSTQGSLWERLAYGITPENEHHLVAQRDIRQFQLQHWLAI

[15] = target: Serine/threonine-protein kinase PAK 2 (Homo sapiens) (UniProt Q13177); settings: Compound concentration 1000.0 nM
Sequence of Serine/threonine-protein kinase PAK 2 (Homo sapiens) (Q13177 whole entry): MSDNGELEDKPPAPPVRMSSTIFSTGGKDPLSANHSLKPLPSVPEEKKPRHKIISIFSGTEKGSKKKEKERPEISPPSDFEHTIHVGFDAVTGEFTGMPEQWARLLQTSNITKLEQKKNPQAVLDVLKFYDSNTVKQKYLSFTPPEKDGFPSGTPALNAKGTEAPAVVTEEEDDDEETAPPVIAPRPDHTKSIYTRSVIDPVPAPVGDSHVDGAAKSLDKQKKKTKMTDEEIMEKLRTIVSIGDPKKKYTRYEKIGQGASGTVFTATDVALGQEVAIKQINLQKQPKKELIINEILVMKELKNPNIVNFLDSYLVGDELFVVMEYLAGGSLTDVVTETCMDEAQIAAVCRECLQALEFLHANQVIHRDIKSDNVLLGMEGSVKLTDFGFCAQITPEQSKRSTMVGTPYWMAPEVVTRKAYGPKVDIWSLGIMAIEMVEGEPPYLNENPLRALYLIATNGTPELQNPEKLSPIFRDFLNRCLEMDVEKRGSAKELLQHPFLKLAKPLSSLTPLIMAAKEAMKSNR

[16] = target: Cyclin-dependent kinase 3 (Homo sapiens) (UniProt Q00526); settings: Compound concentration 1000.0 nM
[17] = target: 5'-AMP-activated protein kinase catalytic subunit alpha-1 (Homo sapiens) (UniProt Q13131); settings: Compound concentration 1000.0 nM
[18] = test system: Phosphatidylinositol 4,5-bisphosphate 3-kinase catalytic subunit alpha isoform (Homo sapiens), P42336 [C420R]; settings: Compound concentration 1000.0 nM
[19] = target: Cyclin-dependent kinase 19 (Homo sapiens) (UniProt Q9BWU1); settings: Compound concentration 1000.0 nM
[20] = target: Tyrosine-protein kinase ABL1 (Homo sapiens) (UniProt P00519); settings: Compound concentration 1000.0 nM
[21] = target: Sigma intracellular receptor 2 (Homo sapiens, UniProt Q5BJF2); assay: GPCRScan assay: inhibition of Sigma 2; design: radioligand conc. used [nm] 5.0, parental cells HEKT
Sequence of Sigma intracellular receptor 2 (Q5BJF2 whole entry): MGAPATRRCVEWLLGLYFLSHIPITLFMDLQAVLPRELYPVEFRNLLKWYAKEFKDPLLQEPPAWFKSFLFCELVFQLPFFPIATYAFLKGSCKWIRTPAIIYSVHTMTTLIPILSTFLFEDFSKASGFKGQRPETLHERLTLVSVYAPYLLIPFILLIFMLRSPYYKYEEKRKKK

[22] = target: Leucine-rich repeat serine/threonine-protein kinase 2 (Homo sapiens) (UniProt Q5S007); settings: Compound concentration 1000.0 nM
[23] = target: Ribosomal protein S6 kinase alpha-6 (Homo sapiens) (UniProt Q9UK32); settings: Compound concentration 1000.0 nM
[24] = target: Death-associated protein kinase 3 (Homo sapiens) (UniProt O43293); settings: Compound concentration 1000.0 nM
Sequence of Death-associated protein kinase 3 (Homo sapiens) (O43293 whole entry, looked up): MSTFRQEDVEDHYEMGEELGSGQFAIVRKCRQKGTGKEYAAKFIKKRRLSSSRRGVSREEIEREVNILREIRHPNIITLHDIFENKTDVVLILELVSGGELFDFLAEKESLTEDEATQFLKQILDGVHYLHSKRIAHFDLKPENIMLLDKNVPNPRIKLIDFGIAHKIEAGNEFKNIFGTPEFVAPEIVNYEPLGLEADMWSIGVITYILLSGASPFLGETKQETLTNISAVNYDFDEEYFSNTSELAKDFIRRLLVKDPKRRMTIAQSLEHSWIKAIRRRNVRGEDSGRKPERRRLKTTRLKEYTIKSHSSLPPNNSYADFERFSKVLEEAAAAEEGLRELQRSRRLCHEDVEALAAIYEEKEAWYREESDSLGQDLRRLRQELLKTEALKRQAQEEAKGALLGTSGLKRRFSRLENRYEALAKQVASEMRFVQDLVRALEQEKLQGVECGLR

[25] = target: Protein-tyrosine kinase 6 (Homo sapiens) (UniProt Q13882); settings: Compound concentration 1000.0 nM
[26] = target: Protein kinase C eta type (Homo sapiens) (UniProt P24723); settings: Compound concentration 1000.0 nM
[27] = test system: Tyrosine-protein kinase ABL1 (Homo sapiens), P00519 [Q252H]; settings: Compound concentration 1000.0 nM
[28] = target: Megakaryocyte-associated tyrosine-protein kinase (Homo sapiens) (UniProt P42679); settings: Compound concentration 1000.0 nM
[29] = target: BMP-2-inducible protein kinase (Homo sapiens) (UniProt Q9NSY1); settings: Compound concentration 1000.0 nM
[30] = target: Mitogen-activated protein kinase kinase kinase kinase 4 (Homo sapiens) (UniProt O95819); settings: Compound concentration 1000.0 nM
[31] = target: cAMP-dependent protein kinase catalytic subunit beta (Homo sapiens) (UniProt P22694); settings: Compound concentration 1000.0 nM
[32] = target: T1, Sodium-dependent noradrenaline transporter; settings: Compound concentration 10.0 uM
[33] = target: Sodium-dependent dopamine transporter (Homo sapiens, UniProt Q01959); settings: Compound concentration 10.0 uM
[34] = target: Receptor tyrosine-protein kinase erbB-3 (Homo sapiens) (UniProt P21860); settings: Compound concentration 1000.0 nM
[35] = target: Myosin light chain kinase, smooth muscle (Homo sapiens) (UniProt Q15746); settings: Compound concentration 1000.0 nM
[36] = target: Mitogen-activated protein kinase 14 (Homo sapiens) (UniProt Q16539); settings: Compound concentration 1000.0 nM
[37] = target: Mitogen-activated protein kinase kinase kinase 15 (Homo sapiens) (UniProt Q6ZN16); settings: Compound concentration 1000.0 nM
[38] = target: High affinity nerve growth factor receptor (Homo sapiens) (UniProt P04629); settings: Compound concentration 1000.0 nM
[39] = target: Casein kinase II subunit alpha' (Homo sapiens) (UniProt P19784); settings: Compound concentration 1000.0 nM
[40] = target: Tyrosine-protein kinase Tec (Homo sapiens) (UniProt P42680); settings: Compound concentration 1000.0 nM
[41] = target: Casein kinase I isoform delta (Homo sapiens) (UniProt P48730); settings: Compound concentration 1000.0 nM
Sequence of Casein kinase I isoform delta (Homo sapiens) (P48730 whole entry, looked up, canonical isoform): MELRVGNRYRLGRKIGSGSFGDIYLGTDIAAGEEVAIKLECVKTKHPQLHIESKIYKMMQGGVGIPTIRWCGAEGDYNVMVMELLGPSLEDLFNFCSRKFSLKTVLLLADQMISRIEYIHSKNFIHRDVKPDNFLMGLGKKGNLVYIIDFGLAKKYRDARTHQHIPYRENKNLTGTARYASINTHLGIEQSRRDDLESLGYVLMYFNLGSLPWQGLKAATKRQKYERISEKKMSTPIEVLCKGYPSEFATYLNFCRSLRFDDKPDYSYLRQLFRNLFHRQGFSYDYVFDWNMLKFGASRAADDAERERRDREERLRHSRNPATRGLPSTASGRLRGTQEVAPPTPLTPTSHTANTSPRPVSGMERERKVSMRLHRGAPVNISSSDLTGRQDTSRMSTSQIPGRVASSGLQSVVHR

[42] = target: Calcium/calmodulin-dependent protein kinase type II subunit gamma (Homo sapiens) (UniProt Q13555); settings: Compound concentration 1000.0 nM
Sequence of Calcium/calmodulin-dependent protein kinase type II subunit gamma (Homo sapiens) (Q13555 whole entry): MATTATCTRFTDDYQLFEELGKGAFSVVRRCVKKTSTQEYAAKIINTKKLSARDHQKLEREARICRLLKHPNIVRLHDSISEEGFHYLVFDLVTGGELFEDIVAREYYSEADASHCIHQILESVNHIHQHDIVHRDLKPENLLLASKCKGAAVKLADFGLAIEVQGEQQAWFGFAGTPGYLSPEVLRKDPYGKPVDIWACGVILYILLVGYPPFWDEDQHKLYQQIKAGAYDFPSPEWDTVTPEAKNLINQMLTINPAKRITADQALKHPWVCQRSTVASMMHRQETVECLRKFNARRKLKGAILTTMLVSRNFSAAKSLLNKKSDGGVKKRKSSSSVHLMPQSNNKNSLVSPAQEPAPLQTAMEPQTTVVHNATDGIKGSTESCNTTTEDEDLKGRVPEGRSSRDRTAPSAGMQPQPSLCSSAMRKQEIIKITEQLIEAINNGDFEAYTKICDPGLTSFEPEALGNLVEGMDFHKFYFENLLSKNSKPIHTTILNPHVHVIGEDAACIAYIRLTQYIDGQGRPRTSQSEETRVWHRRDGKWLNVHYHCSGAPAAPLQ

[43] = target: Mitogen-activated protein kinase kinase kinase 11 (Homo sapiens) (UniProt Q16584); settings: Compound concentration 1000.0 nM
Sequence of Mitogen-activated protein kinase kinase kinase 11 (Homo sapiens) (Q16584 whole entry, looked up): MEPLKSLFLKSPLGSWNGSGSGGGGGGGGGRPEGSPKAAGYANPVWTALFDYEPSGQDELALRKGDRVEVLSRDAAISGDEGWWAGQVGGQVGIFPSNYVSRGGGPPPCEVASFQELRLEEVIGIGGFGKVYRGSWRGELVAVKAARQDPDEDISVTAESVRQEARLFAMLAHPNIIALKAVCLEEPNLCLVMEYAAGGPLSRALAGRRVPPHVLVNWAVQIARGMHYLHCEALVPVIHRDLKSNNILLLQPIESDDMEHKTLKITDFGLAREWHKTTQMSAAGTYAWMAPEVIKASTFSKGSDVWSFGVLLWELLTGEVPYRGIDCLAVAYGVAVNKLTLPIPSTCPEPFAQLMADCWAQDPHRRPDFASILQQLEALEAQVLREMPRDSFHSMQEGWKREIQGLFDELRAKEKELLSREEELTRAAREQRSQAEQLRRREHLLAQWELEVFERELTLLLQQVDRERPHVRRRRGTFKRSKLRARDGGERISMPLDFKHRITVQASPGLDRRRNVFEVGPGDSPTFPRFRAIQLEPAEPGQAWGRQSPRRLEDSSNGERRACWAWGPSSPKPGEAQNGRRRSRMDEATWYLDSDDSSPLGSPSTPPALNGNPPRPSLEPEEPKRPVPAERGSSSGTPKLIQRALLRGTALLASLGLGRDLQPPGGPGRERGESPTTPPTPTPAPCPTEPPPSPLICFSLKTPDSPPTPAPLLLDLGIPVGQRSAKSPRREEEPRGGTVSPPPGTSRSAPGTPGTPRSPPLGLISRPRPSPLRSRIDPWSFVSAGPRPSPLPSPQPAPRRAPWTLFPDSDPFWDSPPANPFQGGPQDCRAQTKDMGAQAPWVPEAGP

[44] = target: 5-hydroxytryptamine receptor 5A (Homo sapiens, UniProt P47898); assay: GPCRScan assay: inhibition of 5-HT5A; design: radioligand conc. used [nm] 2.0 - 3.3, parental cells Flp-In CHO
Sequence of 5-hydroxytryptamine receptor 5A (P47898 whole entry, canonical isoform): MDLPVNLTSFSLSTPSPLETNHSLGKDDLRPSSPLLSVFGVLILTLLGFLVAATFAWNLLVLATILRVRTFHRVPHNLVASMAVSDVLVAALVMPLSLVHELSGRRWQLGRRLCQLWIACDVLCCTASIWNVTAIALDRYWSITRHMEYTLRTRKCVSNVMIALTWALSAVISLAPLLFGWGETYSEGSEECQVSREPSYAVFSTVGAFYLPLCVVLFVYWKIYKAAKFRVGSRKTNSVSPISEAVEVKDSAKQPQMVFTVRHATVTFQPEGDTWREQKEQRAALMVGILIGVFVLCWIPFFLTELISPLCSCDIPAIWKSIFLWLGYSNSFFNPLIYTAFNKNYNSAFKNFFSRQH

[45] = target: Phosphatidylinositol 4,5-bisphosphate 3-kinase catalytic subunit alpha isoform (Homo sapiens) (UniProt P42336); settings: Compound concentration 1000.0 nM

CNCc1ccccc1-c1csc([C@@H](C)Nc2nc(C)nc3cc(OC)c(OC)cc23)c1 [BAY-293]
881 nM: Ki ([14]; read-out: pKi (converted))
inactive: residual activity [1] 83% | residual activity [2] 83% | residual activity [3] 100% | residual activity [4] 89% | residual activity [5] 91% | residual activity [6] 100% | residual activity [7] 90% | residual activity [8] 91% | residual activity [9] 100% | residual activity [10] 78% | inhibition [11] 5.81% | residual activity [12] 100% | residual activity [13] 55% | residual activity [15] 88% | residual activity [16] 100% | residual activity [17] 100% | residual activity [18] 81% | residual activity [19] 85% | residual activity [20] 97% | residual activity [22] 100% | residual activity [23] 100% | residual activity [24] 100% | residual activity [25] 100% | residual activity [26] 100% | residual activity [27] 69% | residual activity [28] 57% | residual activity [29] 87% | residual activity [30] 100% | residual activity [31] 100% | residual activity [34] 76% | residual activity [35] 84% | residual activity [36] 87% | residual activity [37] 60% | residual activity [38] 87% | residual activity [39] 100% | residual activity [40] 100% | residual activity [41] 82% | residual activity [42] 100% | residual activity [43] 99% | residual activity [45] 69%
active: inhibition [32] 84% | inhibition [33] 77.2%
2550 nM: Ki ([44]; read-out: Ki)
2140 nM: Ki ([44]; read-out: pKi (converted))
180 nM: Ki ([21]; read-out: Ki)
982 nM: Ki ([14]; read-out: Ki)

CNCc1ccccc1-c1csc([C@H](C)Nc2nc(C)nc3cc(OC)c(OC)cc23)c1 [BAY-294]
1060 nM: Ki ([44]; read-out: Ki)
977 nM: Ki ([44]; read-out: pKi (converted))
inactive: residual activity [1] 91% | residual activity [2] 87% | residual activity [3] 100% | residual activity [4] 90% | residual activity [5] 97% | residual activity [6] 100% | residual activity [7] 78% | residual activity [8] 91% | residual activity [9] 100% | residual activity [10] 100% | inhibition [11] 10.8% | residual activity [12] 81% | residual activity [13] 74% | residual activity [15] 97% | residual activity [16] 100% | residual activity [17] 93% | residual activity [18] 97% | residual activity [19] 88% | residual activity [20] 100% | residual activity [22] 100% | residual activity [23] 100% | residual activity [24] 100% | residual activity [25] 100% | residual activity [26] 100% | residual activity [27] 76% | residual activity [28] 51% | residual activity [29] 79% | residual activity [30] 97% | residual activity [31] 100% | residual activity [34] 87% | residual activity [35] 94% | residual activity [36] 100% | residual activity [37] 77% | residual activity [38] 87% | residual activity [39] 100% | residual activity [40] 100% | residual activity [41] 95% | residual activity [42] 90% | residual activity [43] 100% | residual activity [45] 71%
638 nM: Ki ([21]; read-out: Ki)
2080 nM: Ki ([14]; read-out: Ki)
active: inhibition [32] 69.3% | inhibition [33] 70.3%
610 nM: Ki ([21]; read-out: pKi (converted))
